Species on record: Rattus norvegicus
Experiment: Open TG-GATES - Regimen: Single
Type: toxicity, organism-based, Sprague-Dawley
Set-up: regimen Single, gender Male, age 6 weeks
Conditions: in vivo, po, 30 mg/kg, route gavage, dose level Middle; for APTT / Bas / Eos / Fbg / Hb / Ht / Lym / MCH / MCHC / MCV / Mono / Neu / PT / Plat / RBC / Ret / WBC: tissue Blood; for KIDNEY_L / KIDNEY_R / KIDNEY_TOTAL: tissue Kidney; for LIVER: tissue Liver; for A/G / ALP / ALT / AST / BUN / CRE / Ca / Cl / DBIL / GLC / IP / K / LDH / Na / PL / RALB / TBIL / TC / TG / TP / gamma-GTP: tissue Plasma

CN(C)CCN(Cc1cccs1)c1ccccn1
TERMINAL_BW (3 h): 182 g | APTT (3 h): 21.9 s | Bas (3 h): 0% | Eos (3 h): 0.6% | Fbg (3 h): 308.2 mg/dL | Hb (3 h): 13 g/dL | Ht (3 h): 39.6% | Lym (3 h): 80.2% | MCH (3 h): 21.6 pg | MCHC (3 h): 32.8% | MCV (3 h): 65.9 fL | Mono (3 h): 2.2% | Neu (3 h): 15.8% | PT (3 h): 16.1 s | Plat (3 h): 115.9 x10_4/uL | RBC (3 h): 603 x10_4/ul | Ret (3 h): 7.3% | WBC (3 h): 81.5 x10_2/uL | KIDNEY_L (3 h): 0.8 g | KIDNEY_R (3 h): 0.9 g | KIDNEY_TOTAL (3 h): 1.7 g | LIVER (3 h): 8.3 g | A/G (3 h): 1.3 | ALP (3 h): 1624.8 IU/L | ALT (3 h): 41.4 IU/L | AST (3 h): 73.6 IU/L | BUN (3 h): 13 mg/dL | CRE (3 h): 0.2 mg/dL | Ca (3 h): 10.5 mg/dL | Cl (3 h): 107.6 meq/L | DBIL (3 h): 0 mg/dL | GLC (3 h): 179 mg/dL | IP (3 h): 8.4 mg/dL | K (3 h): 4.4 meq/L | LDH (3 h): 201.8 IU/L | Na (3 h): 142.8 meq/L | PL (3 h): 140.4 mg/dL | RALB (3 h): 3 g/dL | TBIL (3 h): 0.016 mg/dL | TC (3 h): 75.4 mg/dL | TG (3 h): 53.4 mg/dL | TP (3 h): 5.4 g/dL | gamma-GTP (3 h): 1 IU/L | TERMINAL_BW (6 h): 186.2 g | APTT (6 h): 21.5 s | Bas (6 h): 0% | Eos (6 h): 0.6% | Fbg (6 h): 292.6 mg/dL | Hb (6 h): 12.6 g/dL | Ht (6 h): 38.7% | Lym (6 h): 74.6% | MCH (6 h): 21 pg | MCHC (6 h): 32.7% | MCV (6 h): 64 fL | Mono (6 h): 2% | Neu (6 h): 22% | PT (6 h): 16.9 s | Plat (6 h): 117.9 x10_4/uL | RBC (6 h): 604 x10_4/ul | Ret (6 h): 7.6% | WBC (6 h): 62.8 x10_2/uL | KIDNEY_L (6 h): 0.8 g | KIDNEY_R (6 h): 0.9 g | KIDNEY_TOTAL (6 h): 1.7 g | LIVER (6 h): 8 g | A/G (6 h): 1.2 | ALP (6 h): 1536.2 IU/L | ALT (6 h): 34.2 IU/L | AST (6 h): 71.2 IU/L | BUN (6 h): 12.8 mg/dL | CRE (6 h): 0.1 mg/dL | Ca (6 h): 10.5 mg/dL | Cl (6 h): 106.2 meq/L | DBIL (6 h): 0 mg/dL | GLC (6 h): 173 mg/dL | IP (6 h): 9.2 mg/dL | K (6 h): 4.5 meq/L | LDH (6 h): 178 IU/L | Na (6 h): 141.6 meq/L | PL (6 h): 142.4 mg/dL | RALB (6 h): 2.8 g/dL | TBIL (6 h): 0.024 mg/dL | TC (6 h): 82.6 mg/dL | TG (6 h): 53 mg/dL | TP (6 h): 5.3 g/dL | gamma-GTP (6 h): 1 IU/L | TERMINAL_BW (9 h): 183.7 g | APTT (9 h): 20.6 s | Bas (9 h): 0% | Eos (9 h): 0.6% | Fbg (9 h): 290.8 mg/dL | Hb (9 h): 12.9 g/dL | Ht (9 h): 38.4% | Lym (9 h): 74% | MCH (9 h): 21.1 pg | MCHC (9 h): 33.5% | MCV (9 h): 63.1 fL | Mono (9 h): 2.2% | Neu (9 h): 22.2% | PT (9 h): 15.5 s | Plat (9 h): 124.7 x10_4/uL | RBC (9 h): 608.8 x10_4/ul | Ret (9 h): 7.7% | WBC (9 h): 66.5 x10_2/uL | KIDNEY_L (9 h): 0.8 g | KIDNEY_R (9 h): 0.8 g | KIDNEY_TOTAL (9 h): 1.7 g | LIVER (9 h): 7.5 g | A/G (9 h): 1.2 | ALP (9 h): 1582.8 IU/L | ALT (9 h): 35.8 IU/L | AST (9 h): 69.8 IU/L | BUN (9 h): 11.2 mg/dL | CRE (9 h): 0.1 mg/dL | Ca (9 h): 10.3 mg/dL | Cl (9 h): 106.8 meq/L | DBIL (9 h): 0.002 mg/dL | GLC (9 h): 166.6 mg/dL | IP (9 h): 9.9 mg/dL | K (9 h): 4.5 meq/L | LDH (9 h): 205.6 IU/L | Na (9 h): 141.8 meq/L | PL (9 h): 131 mg/dL | RALB (9 h): 3 g/dL | TBIL (9 h): 0.022 mg/dL | TC (9 h): 77.4 mg/dL | TG (9 h): 42.2 mg/dL | TP (9 h): 5.5 g/dL | gamma-GTP (9 h): 1 IU/L | TERMINAL_BW (24 h): 198 g | APTT (24 h): 20 s | Bas (24 h): 0% | Eos (24 h): 0.8% | Fbg (24 h): 308 mg/dL | Hb (24 h): 12.9 g/dL | Ht (24 h): 38.8% | Lym (24 h): 84.4% | MCH (24 h): 20.6 pg | MCHC (24 h): 33.2% | MCV (24 h): 62.1 fL | Mono (24 h): 1.6% | Neu (24 h): 12.4% | PT (24 h): 16.8 s | Plat (24 h): 124 x10_4/uL | RBC (24 h): 625.6 x10_4/ul | Ret (24 h): 6.8% | WBC (24 h): 67.2 x10_2/uL | KIDNEY_L (24 h): 0.9 g | KIDNEY_R (24 h): 0.9 g | KIDNEY_TOTAL (24 h): 1.8 g | LIVER (24 h): 9.3 g | A/G (24 h): 1.2 | ALP (24 h): 1883 IU/L | ALT (24 h): 46.4 IU/L | AST (24 h): 74.8 IU/L | BUN (24 h): 15.4 mg/dL | CRE (24 h): 0.2 mg/dL | Ca (24 h): 10.9 mg/dL | Cl (24 h): 106 meq/L | DBIL (24 h): 0.004 mg/dL | GLC (24 h): 179.8 mg/dL | IP (24 h): 7.3 mg/dL | K (24 h): 4.4 meq/L | LDH (24 h): 254.8 IU/L | Na (24 h): 142.4 meq/L | PL (24 h): 143.2 mg/dL | RALB (24 h): 3 g/dL | TBIL (24 h): 0.008 mg/dL | TC (24 h): 73.4 mg/dL | TG (24 h): 124.6 mg/dL | TP (24 h): 5.5 g/dL | gamma-GTP (24 h): 1.2 IU/L

From ChEMBL document CHEMBL3885861, “Open TG-GATES”
